Measured values from patent publication US20210275646A1, “PHARMACOLOGIC TREATMENT FOR RIGHT VENTRICULAR FAILURE” (The Trustees of Columbia University in the City of New York, priority 2018, published 2021).

Assays:
Format in all cases: cell-based
[1] = tested on: neonatal rat ventricular myocytes (NRVMs); assay: LC3-II/I ratio (Western) in NRVMs treated with bafilomycin A or chloroquine, canonical versus non-canonical autophagy; conditions: BafA 100 nM, 1 h; si-Wipi1 and si-scramble transfected NRVMs
[2] = tested on: neonatal rat ventricular myocytes (NRVMs); assay: Western blot of protein expression in siRNA-transfected NRVMs with or without aldosterone
Experimental: Total proteins were extracted from tissues and NRVMs with the T-PER lysis buffer (Thermo Scientific) supplemented with the Halt Protease and Phosphatase Inhibitor Cocktail (Thermo Scientific). Protein extraction from mouse tissues was performed using a BeadBug Benchtop Homogenizer and zirconium beads (Sigma). Protein quantification was performed with the BCA reagent (Pierce). Total protein samples were resolved on NuPAGE 4-12% Bis-Tris gradient gels (Invitrogen) and transferred to 0.2 μm Nitrocellulose membranes (Biorad) for immunoblotting. Membranes were stained with the LI-COR Revert Total Protein Stain kit and analyzed as per manufacturer's instructions. Membranes were blocked and then incubated with primary antibodies as detailed in Table 2 at 4° C. overnight. Membranes were then washed and incubated with the appropriate LI-COR secondary antibody. Membranes were imaged using the ODYSSEY-Classic infrared system from LI-COR. Protein expression was normalized to total protein.
(§1) Neonatal Sprague-Dawley rats were euthanized by decapitation within the first 24 h after birth and beating hearts heart fragments were rinsed in 1×PBS without pen/strep and digested in 0.1% Trypsin solution in 1×PBS (0.8 ml of 0.1% Trypsin solution per heart) for 15 min at 37° C. The supernatant was collected and the remaining tissue was further digested repeatedly for a total of 10 times, with serial collection of supernatant. Digestion was stopped on ice with 10% FBS, and cells were collected from pooled supernatant by centrifugation at 1500 rpm for 5 min at room temperature. The cell pellet was resuspended in an adequate volume of complete medium. Cells were counted and plated in 10 cm dishes for ˜1 h at 37° C., 5% CO2 at a density of 10×10^6 cells per plate (pre-plating). During this pre-plating step, non-myocytes including fibroblasts adhere to the plate, while NRVMs remain in suspension. The supernatant cells were subsequently seeded on protamine sulfate coated dishes (10^5 cells/cm^2) and were left to attach for 12 h. NRVM primary cultures were maintained in MEM medium supplemented with 10% FBS, penicillin (100 units/ml)/streptomycin (100 μg/ml) (Gibco-Fisher Scientific). 1-β-D-Arabinofuranosyl-cytosine (AraC 20 μM, Calbiochem-Sigma) was also added to the culture medium to inhibit fibroblast proliferation.
(§2) At 24 h following isolation, NRVMs were transfected with siRNAs using the Dharmafect #1 transfection reagent according to the manufacturers protocol (Dharmacon). NRVMs were plated at a density of ˜10^5 cells/cm^2 and transfected with 10 nM of a pool of either non-targeting siRNA (siRNA-scramble control) or siRNAs against the rat Wipi1 gene (siRNA-Wipi1). All siRNAs were ON-TARGETplus SMARTpool siRNAs (Dharmacon). Following a 24 h transfection period, the medium was changed to serum-free DMEM:F12 supplemented with penicillin (100 units/ml)/streptomycin (100 μg/ml). After ˜12 h of serum-starvation, the cells were incubated with aldosterone (250 μg/ml) in serum-free DMEM:F12 culture medium for 48 h at 37° C., 5% Ca. Serum-free DMEM:F12 culture medium without any aldosterone was used as a comparative control to neurohormone activation.

[3] = tested on: neonatal rat ventricular myocytes (NRVMs); assay: RT-qPCR of transcript expression in siRNA-transfected NRVMs with or without aldosterone
Experimental: Total RNA were extracted from human and mouse tissues and cultured neonatal rat ventricular myocytes (NRVMs) using the Tissue RNA Purification Kit (Norgen Biotek) and the TRIzol reagent (Invitrogen) respectively, according to the manufacturer's instructions. RNA was quantified with the NanoDrop-2000c instrument (Thermo Scientific), and cDNA synthesis was performed with iScript reverse transcription Supermix (BioRad). Quantitative RT-PCR was performed on a CFX96 thermal cycler using the iTac Universal SYBR green Supermix (Biorad) and specific primers. Gene expression was normalized to Rps13, and relative mRNA expression was quantified using the ΔΔCt method. For data robustness and reproducibility, target genes were also normalized to Rps15.
as §1
as §2, with “After ˜12 h of serum-starvation, the cells were incubated with aldosterone (250 μg/ml) in serum-free DMEM:F12 culture medium for 48 h at 37° C., 5% Ca.” left out

[4] = tested on: neonatal rat ventricular myocytes (NRVMs); assay: MitoSOX Red analysis of mitochondrial superoxide level; conditions: Aldo 1 μM 48 h, si-scramble control NRVMs
Experimental: Neonatal rat ventricular myocytes (NRVMs) were transfected with scramble or Wipi1-specific siRNAs and then stimulated with aldosterone (Aldo, 1 μM, 48 h) or hydrogen peroxide (H2O2, 50 μM, 2 h).
as §2
Mitochondrial superoxide level was monitored with the MitoSOX™ Red mitochondrial superoxide indicator for live-cell imaging (Molecular Probes). […] The red fluorescent signal was measured with ImageJ software and normalized to the brightfield signal.

[5] = tested on: neonatal rat ventricular myocytes (NRVMs); assay: MTT assay of cell viability
Experimental: To assess NRVM viability, the Vybrant MTT cell proliferation assay kit was used (Molecular probes). Initially, NRVM were seeded on 96-well plates at ˜3×10^4 cells/well (˜10^5 cells/cm^2, the same density as in other assays) and were treated identically as in the siRNA transfection assays (including transfection, serum starvation and neurohormonal stimulation). In addition, increasing number of cells ranging from 2×10^4 to 14×10^4 were used to create a standard curve and to calculate the linearity between absorbance at 595 nm and cell number. Prior to labelling with MTT, the medium was removed and 100 μl of fresh medium was added to each well. The same amount of medium (100 μl) without cells was used as negative control (blank). The cells and the negative control were labeled with 10 μl of 12 mM MTT/well and were incubated at 37° C. for 4 h. Subsequently, 100 μl of SDS-HCL solution was added to each well, mixed thoroughly and incubated for 4 h at 37° C. Finally, the absorbance at 595 nm was measured on a plate reader and the % of cell viability was calculated using the formula:
% of viability=(A595sample/A595reference)×100

[6] = NRVMs, si-Wipi1 vs si-scramble, with or without aldosterone
[7] = aldosterone 48 h, si-scramble control NRVMs, serum starved

SMILES | LC3-II/I ratio [1] | Hspb6 protein expression [2, 6] | Snap47 or Prdx5 protein expression [2, 6] | Ser16-HSPB6 phosphorylation ([2]; aldosterone 48 h, si-scramble NRVMs, serum starved) | BECN1 expression [2, 7] | LC3-lipidation [2, 7] | Map4 protein expression ([2]; aldosterone, si-scramble control NRVMs) | Snap47 or Prdx5 transcript expression [3, 6] | Map4 transcript levels ([3]; aldosterone stimulation, in either si-Wipi1 or si-scramble NRVMs) | Hspb6 transcript expression ([3]; aldosterone, both si-Wipi1 and si-scramble NRVMs) | expression of Nppa, Nppb, Acta1, and Myh7 (fetal gene program) ([3]; si-scramble control NRVMs, Aldo 1 μM 48 h) | mitochondrial superoxide levels [4] | cell viability [5]
CO/C1=C\C(C)=C\[C@@H](C)[C@@H](O)[C@@H](C)C/C(C)=C/C=C/[C@H](OC)[C@@H]([C@@H](C)[C@@H](O)[C@H](C)[C@@]2(O)C[C@@H](O)[C@H](C)[C@@H](C(C)C)O2)OC1=O [BafA, bafilomycin A] | increased | – | – | – | – | – | – | – | – | – | – | – | –
C[C@]12CCC(=O)C=C1CC[C@@H]1[C@@H]2[C@@H](O)C[C@]2(C=O)[C@@H](C(=O)CO)CC[C@@H]12 [aldosterone] | – | consistent with transcript data | Neither silencing Wipi1 nor stimulation with aldosterone affected | did decrease | did not affect | did not affect | did induce | Neither silencing Wipi1 nor stimulation with aldosterone affected | did not affect | stimulated | significantly increased | increased | Neither aldosterone stimulation nor silencing Wipi1 negatively impacted
